Data published in patent publication US7208512B2, “Benzodifuranimidazoline and benzofuranimidazoline derivatives and their use for the treatment of glaucoma” (Alcon, Inc., priority 2001, dated 2007).

Assays:
5-HT2 receptor [1] = target: T1, 5-HT2 receptor (Rattus norvegicus, UniProt P14842); assay: 5-HT2 receptor binding assay ([125I]DOI competition, rat cerebral cortex homogenates)
Experimental: Aliquots of post mortem rat cerebral cortex homogenates (400 μl) dispersed in 50 mM TrisHCl buffer (pH 7.4) are incubated with [^125I]DOI (80 pM final) in the absence or presence of methiothepin (10 μM final) to define total and non-specific binding, respectively, in a total volume of 0.5 ml. The assay mixture is incubated for 1 hour at 23° C. in polypropylene tubes and the assays terminated by rapid vacuum filtration over Whatman GF/B glass fiber filters previously soaked in 0.3% polyethyleneimine using ice-cold buffer. Test compounds (at different concentrations) are substituted for methiothepin. Filter-bound radioactivity is determined by scintillation spectrometry on a beta counter. The data are analyzed using a non-linear, iterative curve-fitting computer program (Bowen et al. 1995) to determine the compound affinity parameter.

5-HT2 receptor [2] = target: T1, 5-HT2 receptor; assay: 5-HT2 functional assay: phosphoinositide (PI) turnover in A7r5 rat vascular smooth muscle cells; type: cell-based; set-up: A7r5 rat vascular smooth muscle cells; endogenous in cells; host or cells: A7r5 rat vascular smooth muscle cells; settings: [3H]-IPs production in A7r5 cells
Experimental: The relative agonist activity of serotonergic compounds at the 5-HT2 receptor can be determined in vitro using the ability of the compounds to stimulate the production of [^3H]inositol phosphates in [^3H]myo-inositol-labeled A7r5 rat vascular smooth muscle cells by their ability to activate the enzyme phospholipase C. These cells are grown in culture plates, maintained in a humidified atmosphere of 5% CO2 and 95% air and fed semi-weekly with Dulbecco's modified Eagle medium (DMEM) containing 4.5 g/l glucose and supplemented with 2 mM glutamine, 10 μg/ml gentamicin, and 10% fetal bovine serum. […] Confluent cells are exposed for 24–30 hrs to 1.5 μCi [^3H]-myo-inositol (18.3 Ci/mmol) in 0.5 ml of serum-free medium. Cells are then rinsed once with DMEM/F-12 containing 10 mM LiCl prior to incubation with the test agent (or solvent as the control) in 1.0 ml of the same medium for 1 hr at 37° C., after which the medium is aspirated and 1 ml of cold 0.1 M formic acid added to stop the reaction. […] The eluate (4 ml) is collected, mixed with 15 ml scintillation fluid, and the total [^3H]-IPs determined by scintillation counting on a beta-counter. Concentration-response data are analyzed by the sigmoidal fit function of the Origin Scientific Graphics software (Microcal Software, Northampton, Mass.) to determine agonist potency (EC50 value) and efficacy (Emax). […]

T1 sequence (P14842 whole entry): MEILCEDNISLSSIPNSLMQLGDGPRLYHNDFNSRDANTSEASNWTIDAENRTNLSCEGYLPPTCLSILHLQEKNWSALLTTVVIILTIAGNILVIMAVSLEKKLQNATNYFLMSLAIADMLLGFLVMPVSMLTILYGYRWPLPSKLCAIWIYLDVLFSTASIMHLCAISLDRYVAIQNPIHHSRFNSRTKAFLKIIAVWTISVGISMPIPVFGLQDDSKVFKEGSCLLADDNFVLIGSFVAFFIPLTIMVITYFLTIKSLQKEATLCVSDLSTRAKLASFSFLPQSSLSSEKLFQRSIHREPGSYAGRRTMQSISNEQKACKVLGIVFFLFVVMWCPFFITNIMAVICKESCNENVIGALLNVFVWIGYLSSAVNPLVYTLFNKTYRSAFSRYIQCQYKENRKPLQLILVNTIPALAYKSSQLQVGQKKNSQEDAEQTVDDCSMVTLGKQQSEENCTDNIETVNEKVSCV

## COc1cc(C[C@@H](C)N)c(OC)cc1I [(R)-DOI, reference compound]
5-HT2 receptor [1]
  IC50: 0.46 nM
5-HT2 receptor [2]
  EC50: 277 nM
